Format in all cases: cell-based
One experiment deals with T1, ACKR3 (Homo sapiens, UniProt P25106).
T1 construct: expressed in transfected cells; host or cells: HEK293T
The experiment in a line: β-arrestin-2 recruitment to ACKR3, nanoluciferase complementation (NanoBiT) in HEK cells. The following applies: pEC50 ± S.E.M, β-arrestin-2 recruitment, ACKR3 (Supplementary Table 2), HEK cells, NanoBiT, three independent experiments. The method, then:
(§1) Ligand-induced recruitment of β-arrestin, miniGi or miniGq proteins (engineered GTPase domain of Gα subunit)[46],[47] to the receptors was monitored using NanoBiT technology (Promega), as previously described.[27],[48] HEK293T cells (5 × 10^6 cells) were seeded in 10 cm dishes, and 24 h later, the cells were cotransfected with pNBe plasmids encoding the receptor C-terminally fused to SmBiT and β-arrestin, miniGi, or miniGq N-terminally fused to LgBiT. After 24 h, the cells were detached and incubated for 25 min at 37 °C with Nano-Glo Live Cell substrate diluted 200-fold, distributed into white 96-well plates (1 × 10^5 cells/well), and treated with the indicated concentrations of peptides. Luminescence was recorded during 20 min with a Mithras LB940 luminometer (Berthold Technologies). For the concentration–response curves, the signal recorded with a saturating concentration of full agonist for each receptor was set as 100%. For receptor screening experiments, results were expressed as fold vehicle, and an agonist chemokine (100 nM) listed in the IUPHAR repository of chemokine receptor ligands was included as a positive control for each receptor.
(§2) Concentration–response curves were fitted to the four-parameter Hill equation using an iterative, least-squares method (GraphPad Prism version 8.0.1). All curves were fitted to data points generated from the mean of at least three independent experiments. Statistical tests, i.e., ordinary one-way ANOVA and post hoc analysis were performed with GraphPad Prism 8.0.1. The p-values are indicated as follows: *, p < 0.05; **, p < 0.01; ***, p < 0.001; and ****, p < 0.0001.
A general note: Activated receptors often draw arrestin, which recruitment assays turn into a signal.

In the next experiment the target is T2, MrgX2 (Homo sapiens, UniProt Q96LB1).
T2 construct: expressed in transfected cells; host or cells: HEK293T
T2 sequence (Q96LB1 1-330): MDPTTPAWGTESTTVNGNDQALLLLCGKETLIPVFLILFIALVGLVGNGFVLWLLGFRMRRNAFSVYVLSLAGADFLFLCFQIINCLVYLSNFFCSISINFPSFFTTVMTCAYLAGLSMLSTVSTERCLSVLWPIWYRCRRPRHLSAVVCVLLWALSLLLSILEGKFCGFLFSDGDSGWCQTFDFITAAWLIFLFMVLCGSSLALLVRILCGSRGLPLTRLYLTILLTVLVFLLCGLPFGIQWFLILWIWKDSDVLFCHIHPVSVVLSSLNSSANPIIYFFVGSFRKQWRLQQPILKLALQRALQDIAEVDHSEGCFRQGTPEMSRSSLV
Kind of experiment: β-arrestin-2 recruitment to MrgX2, NanoBiT in HEK cells. The method, then:
as §1, §2

Experiment [1] has as its system all known classical and atypical human chemokine receptors. The experiment in a line: β-arrestin-2 recruitment screen toward all chemokine receptors (NanoBiT). The following applies: peptides 3 μM, fold change over vehicle. As to the method: as §1

Where no end group is shown, it is not given here.

T1 sequence (P25106 whole entry): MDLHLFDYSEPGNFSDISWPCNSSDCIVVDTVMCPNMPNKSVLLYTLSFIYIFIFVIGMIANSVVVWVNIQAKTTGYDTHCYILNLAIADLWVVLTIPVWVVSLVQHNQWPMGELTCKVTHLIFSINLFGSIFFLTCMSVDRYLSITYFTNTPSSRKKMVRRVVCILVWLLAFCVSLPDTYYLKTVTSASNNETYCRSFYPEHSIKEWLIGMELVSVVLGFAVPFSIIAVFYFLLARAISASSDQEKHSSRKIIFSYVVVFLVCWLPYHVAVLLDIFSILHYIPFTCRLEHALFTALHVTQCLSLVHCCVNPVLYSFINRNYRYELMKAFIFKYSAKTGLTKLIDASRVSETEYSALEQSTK

Broadly, the EC50 is the concentration that produces a half-maximal response. A higher EC50 goes with lower potency in that assay. Turning to FRKKWNKAALSR-NH2, the EC50 on ACKR3 is 2240 nM; at MrgX2 it was 2510 nM.
Taken in the same sequence, the figures for FRKKWNKFALSR-NH2 were 1150 nM and 1050 nM.
Take FRKKWNKWAASR-NH2: the EC50 on ACKR3 was 2880 nM; on MrgX2, 1480 nM.
Regarding FRKKWNKWAFSR-NH2, the EC50 is 955 nM on ACKR3 and 741 nM on MrgX2.
On to FRKKWNKWALAR-NH2, for which the figures for the EC50 on ACKR3 and at MrgX2 were 912 nM and 339 nM, respectively.
With FRKKWNKWALFR-NH2, the EC50 at ACKR3 was 575 nM; on MrgX2 it was 209 nM.
Taken in the same sequence, the figures for FRKKWNKWALS-NH2 [FRKKWNKWALS -] were 2570 nM and 1550 nM.
The like results for FRKKWNKWALSA-NH2 were, in that order, 11200 nM and 5750 nM.
Taken in the same sequence, the figures for FRKKWNKWALSK-NH2 were 1020 nM and 794 nM.
FRKKWNKWALTR-NH2: the EC50 on ACKR3 is 575 nM; at MrgX2, 269 nM.
The like results for FRKKWNKWFLSR-NH2 were, in that order, 513 nM and 417 nM.
Turning to FRKKWNKWGLSR-NH2, the EC50 at ACKR3 is 1580 nM; at MrgX2, 1100 nM.
As to FRKKWNKYALSR-NH2, the values for the EC50 on ACKR3 and on MrgX2 were 776 nM and 741 nM, respectively.
Taken in the same sequence, the figures for FRKKWNRWALSR-NH2 were 331 nM and 1950 nM.
Take FRKKWQKWALSR-NH2: the EC50 at ACKR3 is 776 nM; at MrgX2 it was 4680 nM.
FRKKYNKWALSR-NH2: the EC50 was 3160 nM at ACKR3 and 2450 nM at MrgX2.
As to FRKRWNKWALSR-NH2, the EC50 at ACKR3 was 759 nM; at MrgX2, 1910 nM.
For the substance FRRKWNKWALSR-NH2, the half-maximal effective concentration (EC50) on ACKR3 is 468 nM; at MrgX2, 2750 nM.
As to KWNKWALSR-NH2 [PAMP(12–20)], the “agonist activity toward the other 24 chemokine receptors tested, in words” value in experiment [1] is listed as “do not activate”.
On to RKKWNKWALSR-NH2 [- RKKWNKWALSR], for which the EC50 on ACKR3 is 28800 nM; at MrgX2 it was 2090 nM.
As for WNKWALSR-NH2 [PAMP 13-20], it took 11700 nM to reach a half-maximal effect at ACKR3 (EC50).
YRKKWNKWALSR-NH2: the values for the EC50 on ACKR3 and at MrgX2 were 6760 nM and 912 nM, respectively.

These data come from paper PMC8033753, “Proadrenomedullin N-Terminal 20 Peptides (PAMPs) Are Agonists of the Chemokine Scavenger Receptor ACKR3/CXCR7” (ACS Pharmacology & Translational Science, 2021).
